The record followed here is patent publication US8466155B2, “Pyrimidines” (Boehringer Ingelheim International GmbH, priority 2009, dated 2013).

Structures are written as SMILES. pIC50: −log10 of the molar value.

The experiment deals with T1, PTK2 (Homo sapiens, UniProt Q05397).
T1 construct: purchased Invitrogen PV3832
Put plainly: PTK2 enzyme test, Assay 1 (DELFIA, PT60 antibody). The conditions noted are these: 1 h pre-incubation, 1 h kinase reaction, values without *. In kind it is biochemical. How it is done: This test uses active PTK2 enzyme (Invitrogen Code PV3832) and poly-Glu-Tyr (4:1, Sigma P-0275) as the kinase substrate. The kinase activity is detected through the phosphorylation of the substrate in a DELFIA™ assay. The phosphorylated substrate is detected with the europium-labelled phosphotyrosine antibody PT60 (Perkin Elmer, No.: AD00400).
In order to determine concentration-activity curves with PTK2-inhibitors the compounds are serially diluted in 10% DMSO/H20 and 10 μL of each dilution are placed in each well of a 96-well microtitre plate (clear plate with a U-shaped base, Greiner No. 650101) (the inhibitors are tested in duplicates) and mixed with 10 μL/well of PTK2 kinase (0.01 μg/well). PTK2 kinase has been correspondingly diluted beforehand with kinase dilution buffer (20 mM TRIS/HCl pH 7.5, 0.1 mM EDTA, 0.1 mM EGTA, 0.286 mM sodium orthovanadate, 10% glycerol with the addition of freshly prepared BSA (fraction V, 1 mg/mL) and DTT (1 mM)). The test compound and the PTK2 kinase are pre-incubated for 1 h at RT and shaken at 500 revolutions per min. The reaction is started by the addition of 10 μL/well poly (Glu,Tyr) substrate (25 μg/well poly (Glu, Tyr), 0.05 μg/well biotinylated poly (Glu,Tyr) dissolved in 250 mM TRIS/HCl pH 7.5, 9 mM DTT)—the final concentration of DMSO is 2%. Then 20 μL of ATP Mix (30 mM TRIS/HCl pH 7.5, 0.02% Brij, 0.2 mM sodium orthovanadate, 10 mM magnesium acetate, 0.1 mM EGTA, 1× phosphatase inhibitor cocktail 1 (Sigma, No.: P2850), 50 μM ATP (Sigma, No.: A3377; 15 mM stock solution)) are added. After 1 h of kinase reaction (the plates are shaken at 500 rpm), the reaction is stopped by the addition of 12 μL/well 100 mM EDTA, pH 8.0 and shaken for a further 5 min at RT (500 rpm). 55 μL of the reaction mixture are transferred into a streptavidin plate (Strepta Well High Bind (transparent, 96-well) made by Roche, No.: 11989685001) and incubated for 1 h at RT (shaking at 500 rpm). Then the microtitre plate is washed three times with 200 μL/well D-PBS (Invitrogen, No. 14190). 100 μL of a solution containing DELFIA Eu-N1 Anti-Phosphotyrosine PT60 antibody (Perkin Elmer, No.: AD0040, diluted 1:2000 in DELFIA test buffer (Perkin Elmer, No.: 1244-111)) is then added and the mixture is incubated for 1 h at RT (shaking at 500 rpm). Then the plate is washed three times with 200 μL/well DELFIA washing buffer (Perkin Elmer, No.: 1244-114), 200 μL/well strengthening solution (Perkin Elmer, No.: 1244-105) are added and the mixture is incubated for 10 min at RT (shaking at 300 rpm).
The time-delayed europium fluorescence is then measured in a microtitre plate reader (VICTOR^3, Perkin Elmer). […] Wells that contain test buffer instead of enzyme are used as a control of the background kinase activity.
The IC50 values are determined from analyses of the concentration activity by iterative calculation with the aid of a sigmoid curve analysis algorithm (FIFTY, based on GraphPAD Prism Version 3.03) with a variable Hill coefficient.

T1 sequence (Q05397 whole entry): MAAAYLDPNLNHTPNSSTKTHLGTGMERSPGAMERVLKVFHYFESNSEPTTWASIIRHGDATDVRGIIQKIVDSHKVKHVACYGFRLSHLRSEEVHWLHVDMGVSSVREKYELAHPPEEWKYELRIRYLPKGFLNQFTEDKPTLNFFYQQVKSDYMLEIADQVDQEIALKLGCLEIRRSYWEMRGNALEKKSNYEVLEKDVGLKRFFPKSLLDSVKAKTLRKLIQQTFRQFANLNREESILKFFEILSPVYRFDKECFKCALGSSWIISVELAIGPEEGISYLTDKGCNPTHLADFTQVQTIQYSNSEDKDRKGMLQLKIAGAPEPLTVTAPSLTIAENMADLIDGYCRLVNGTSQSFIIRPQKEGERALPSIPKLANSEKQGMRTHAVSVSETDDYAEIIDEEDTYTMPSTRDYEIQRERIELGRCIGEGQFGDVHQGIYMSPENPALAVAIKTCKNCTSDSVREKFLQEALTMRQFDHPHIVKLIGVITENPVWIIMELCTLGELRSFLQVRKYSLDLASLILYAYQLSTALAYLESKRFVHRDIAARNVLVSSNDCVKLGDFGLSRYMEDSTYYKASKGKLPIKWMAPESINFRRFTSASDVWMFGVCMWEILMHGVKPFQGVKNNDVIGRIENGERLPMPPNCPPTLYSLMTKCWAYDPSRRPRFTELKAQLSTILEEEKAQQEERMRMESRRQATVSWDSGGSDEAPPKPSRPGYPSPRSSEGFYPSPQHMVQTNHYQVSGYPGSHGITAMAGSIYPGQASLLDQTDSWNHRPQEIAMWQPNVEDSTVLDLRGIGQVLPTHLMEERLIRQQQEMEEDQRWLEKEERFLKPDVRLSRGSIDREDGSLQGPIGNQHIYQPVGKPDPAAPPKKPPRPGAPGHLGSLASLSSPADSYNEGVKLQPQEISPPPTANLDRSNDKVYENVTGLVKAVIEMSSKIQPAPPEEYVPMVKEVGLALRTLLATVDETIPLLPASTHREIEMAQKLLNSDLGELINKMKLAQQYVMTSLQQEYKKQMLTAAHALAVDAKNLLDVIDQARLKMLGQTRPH

One may read the pIC50 as the negative decadic logarithm of the IC50, by convention in mol/L. A lower pIC50 goes with a large IC50. In turn, `COc1cc(C(=O)NN2CCN(C)CC2)ccc1Nc1ncc(C(F)(F)F)c(O[C@@H]2CCCC[C@H]2N(C)S(C)(=O)=O)n1` [Example 77, 4-{4-[(1R,2R)-2-(methanesulphonyl-methyl-amino)-cyclohexyloxy]-5-trifluoromethyl-pyrimidin-2-ylamino}-3-methoxy-N-(4-methyl-piperazin-1-yl)-benzamide] had a pIC50 of 9.52. In the case of `COc1cc(C(=O)NCCN(C)C)c(Cl)cc1Nc1ncc(C(F)(F)F)c(O[C@@H]2CCC[C@H]2NS(C)(=O)=O)n1` [Example 78], the pIC50 is 9.43. `COc1ccc(C(=O)NN2CCN(C)CC2)cc1Nc1ncc(C(F)(F)F)c(O[C@@H]2Cc3ccccc3[C@H]2N(C)S(C)(=O)=O)n1` [Example 80] had a pIC50 of 9.39. Then `COc1ccc(C(=O)NCCN(C)C)cc1Nc1ncc(C(F)(F)F)c(O[C@@H]2Cc3ccccc3[C@H]2N(C)S(C)(=O)=O)n1` [Example 81], with 9.51; and `COc1ccc(C(=O)NCCCN(C)C)cc1Nc1ncc(C(F)(F)F)c(O[C@@H]2Cc3ccccc3[C@H]2N(C)S(C)(=O)=O)n1` [Example 82], with 9.42. The compound `Cc1nc2ccc(Nc3ncc(C(F)(F)F)c(O[C@@H]4CCC[C@H]4NS(C)(=O)=O)n3)cc2o1` [Example 83] showed a pIC50 of 9.00. Take `COc1cc(C(=O)NC2CCN(C)CC2)c(Cl)cc1Nc1ncc(Cl)c(O[C@@H]2CCC[C@H]2N(C)S(C)(=O)=O)n1` [Example 84, 2-chloro-4-{5-chloro-4-[(1R,2R)-2-(methanesulphonyl-methyl-amino)-cyclopentyloxy]-pyrimidin-2-ylamino}-5-methoxy-N-(1-methyl-piperidin-4-yl)-benzamide]: the pIC50 is 9.49. `COc1cc(C(=O)NC2CCN(C)CC2)c(F)cc1Nc1ncc(Cl)c(O[C@@H]2CCC[C@H]2N(C)S(C)(=O)=O)n1` [Example 85, 4-{5-chloro-4-[(1R,2R)-2-(methanesulphonyl-methyl-amino)-cyclopentyloxy]-pyrimidin-2-ylamino}-2-fluoro-5-methoxy-N-(1-methyl-piperidin-4-yl)-benzamide] had a pIC50 of 9.43. In the case of `COc1cc(C(=O)NCCN(C)C)c(Cl)cc1Nc1ncc(C(F)(F)F)c(O[C@@H]2Cc3ccccc3[C@H]2NS(C)(=O)=O)n1` [Example 86], the pIC50 was 9.35. The figure for `COc1cc(C(=O)NC2CCN(C)CC2)c(Cl)cc1Nc1ncc(C(F)(F)F)c(O[C@@H]2Cc3ccccc3[C@H]2NS(C)(=O)=O)n1` [Example 87] is 9.55. In turn, `COc1cc(C(=O)NN2CCN(C)CC2)c(F)cc1Nc1ncc(Cl)c(O[C@@H]2CCC[C@H]2N(C)S(C)(=O)=O)n1` [Example 88, 4-{5-chloro-4-[(1R,2R)-2-(methanesulphonyl-methyl-amino)-cyclopentyloxy]-pyrimidin-2-ylamino}-2-fluoro-5-methoxy-N-(4-methyl-piperazin-1-yl)-benzamide] gave a pIC50 of 9.43. Regarding `COc1cc(C(=O)NN2CCN(C)CC2)ccc1Nc1ncc(C(F)(F)F)c(O[C@@H]2CCC[C@H]2N(C)S(C)(=O)=O)n1` [Example 89], the pIC50 is 9.48.

`COc1cc(NC(=O)C2CCN(C)CC2)ccc1Nc1ncc(C(F)(F)F)c(O[C@@H]2Cc3ccccc3[C@H]2N(C)S(C)(=O)=O)n1` [Example 91] showed a pIC50 of 8.40.

The compound `COc1cc(NC(=O)C2CCCN(C)C2)ccc1Nc1ncc(C(F)(F)F)c(O[C@@H]2Cc3ccccc3[C@H]2N(C)S(C)(=O)=O)n1` (some centres unmarked) [Example 92] gave a pIC50 of 8.52. Then `COc1cc(C(=O)NC2CCN(C)CC2)c(Cl)cc1Nc1ncc(C(F)(F)F)c(O[C@@H]2CCCC[C@H]2NS(C)(=O)=O)n1` [Example 93], with 9.38. The figure for `COc1cc(NC(C)=O)ccc1Nc1ncc(C(F)(F)F)c(O[C@@H]2Cc3ccccc3[C@H]2N(C)S(C)(=O)=O)n1` [Example 94] is 8.30; for `COc1cc(C(=O)NCCN(C)C)ccc1Nc1ncc(C(F)(F)F)c(O[C@@H]2Cc3ccccc3[C@H]2NS(C)(=O)=O)n1` [Example 95] it is 9.25.

For `COc1cc(C(=O)NCCN(C)C)c(F)cc1Nc1ncc(C(F)(F)F)c(O[C@@H]2Cc3ccccc3[C@H]2NS(C)(=O)=O)n1` [Example 96], the pIC50 is 9.27.

`CS(=O)(=O)N[C@@H]1CCC[C@H]1Oc1nc(Nc2ccc3ncsc3c2)ncc1C(F)(F)F` [Example 97] gave a pIC50 of 8.70. Take `COc1cc(C(=O)NN2CCN(C)CC2)c(F)cc1Nc1ncc(C(F)(F)F)c(O[C@@H]2CCC[C@H]2NS(C)(=O)=O)n1` [Example 98]: the pIC50 was 8.40. `COc1cc(C(=O)NCCN(C)C)c(F)cc1Nc1ncc(C(F)(F)F)c(O[C@@H]2CCC[C@H]2NS(C)(=O)=O)n1` [Example 99]: the pIC50 is 9.43. `COc1cc(C(=O)NN2CCN(C)CC2)c(Cl)cc1Nc1ncc(C(F)(F)F)c(O[C@@H]2CCC[C@H]2N(C)S(C)(=O)=O)n1` [Example 100, 2-chloro-4-{4-[(1R,2R)-2-(methanesulphonyl-methyl-amino)-cyclopentyloxy]-5-trifluoromethyl-pyrimidin-2-ylamino}-5-methoxy-N-(4-methyl-piperazin-1-yl)-benzamide] showed a pIC50 of 9.59. `COc1cc(C(=O)NN2CCN(C)CC2)c(F)cc1Nc1ncc(C(F)(F)F)c(O[C@@H]2CCC[C@H]2N(C)S(C)(=O)=O)n1` [Example 101, 2-fluoro-4-{4-[(1R,2R)-2-(methanesulphonyl-methyl-amino)-cyclopentyloxy]-5-trifluoromethyl-pyrimidin-2-ylamino}-5-methoxy-N-(4-methyl-piperazin-1-yl)-benzamide] had a pIC50 of 9.52. Then `COc1cc(C(=O)NC2CCN(C)CC2)c(Cl)cc1Nc1ncc(C(F)(F)F)c(O[C@@H]2CCC[C@H]2N(C)S(C)(=O)=O)n1` [Example 102, 2-chloro-4-{4-[(1R,2R)-2-(methanesulphonyl-methyl-amino)-cyclopentyloxy]-5-trifluoromethyl-pyrimidin-2-ylamino}-5-methoxy-N-(1-methyl-piperidin-4-yl)-benzamide], with 9.21; and `COc1cc(C(=O)NC2CCN(C)CC2)c(F)cc1Nc1ncc(C(F)(F)F)c(O[C@@H]2CCC[C@H]2N(C)S(C)(=O)=O)n1` [Example 103, 2-fluoro-4-{4-[(1R,2R)-2-(methanesulphonyl-methyl-amino)-cyclopentyloxy]-5-trifluoromethyl-pyrimidin-2-ylamino}-5-methoxy-N-(1-methyl-piperidin-4-yl)-benzamide], with 9.55. Regarding `COc1cc(C(=O)NC2CCN(C)CC2)c(F)cc1Nc1ncc(C(F)(F)F)c(O[C@@H]2CCCC[C@H]2NS(C)(=O)=O)n1` [Example 105], the pIC50 was 9.41. Then `COc1cc(C(=O)NCCN(C)C)c(F)cc1Nc1ncc(C(F)(F)F)c(O[C@@H]2CCCC[C@H]2NS(C)(=O)=O)n1` [Example 106], with 9.00. In turn, `COc1cc(C(=O)NC2CCN(C)CC2)c(F)cc1Nc1ncc(C(F)(F)F)c(O[C@@H]2CCC[C@H]2NS(=O)(=O)C(F)(F)F)n1` [Example 107] showed a pIC50 of 6.99.

Compound `COc1cc(C(=O)NCCN(C)C)c(Cl)cc1Nc1ncc(C(F)(F)F)c(O[C@@H]2CCCC[C@H]2NS(C)(=O)=O)n1` [Example 108] showed a pIC50 of 9.36.

Consider `COc1cc(C(=O)NCCN(C)C)c(Cl)cc1Nc1ncc(C(F)(F)F)c(O[C@@H]2CCCC[C@H]2N(C)S(C)(=O)=O)n1` [Example 109], for which the pIC50 was 9.46.

In turn, `COc1cc(C(=O)NCCN(C)C)c(F)cc1Nc1ncc(C(F)(F)F)c(O[C@@H]2CCCC[C@H]2N(C)S(C)(=O)=O)n1` [Example 110] had a negative-log IC50 (pIC50) of 9.46. The compound `COc1cc(C(=O)NCCN(C)C)ccc1Nc1ncc(C(F)(F)F)c(O[C@@H]2CCCC[C@H]2N(C)S(C)(=O)=O)n1` [Example 111] had a pIC50 of 9.44.
